Measured values taken from patent US9133241B2, “Peptide compositions” (TARIX PHARMACEUTICALS LTD., priority 2013, dated 2015).

Key:
HUVEC cells = test: cAMP production in HUVEC (cAMP enzyme immunoassay of cell lysate); assay type: cell-based, human; conditions: 15 minutes stimulation
Method: Prior to stimulation with Ala^1-Arg^2-Val^3-Ser^4-Ile^5-His^6-Cys^7 (SEQ ID NO: 18), HUVEC cells were washed twice with PBS and then incubated for 1 hour in serum-free medium. In this Example, in order to generate a dose response curve, the peptide concentration ranged from 1×10^−13-1×10^−6 M. After 15 minutes stimulation, the medium containing peptide was removed and the cells were lysed (0.1M HCl, 0.1% Triton X-100). The clear lysate was collected, and 25 μl were used for determining the protein concentration (Pierce BCA Protein Assay Kit, Thermo Scientific, Rockford, USA) and the remaining fraction stored at −80° C. for later analysis.
cAMP concentration in cell lysates was determined using cAMP Enzyme Immunoassay Kit, Direct from Sigma-Aldrich (St. Louis, Mo., USA). Briefly, wells of 96-well plate (Goat Anti-Rabbit IgG pre-coated) were neutralized with 50 μl of Neutralizing Reagent. Next, 100 μl of acetylated cyclic AMP standard or cell lysate was added, followed by 50 μl of blue cAMP-Alkaline Phosphatase Conjugate and 50 μl of yellow EIA Rabbit Anti-cAMP antibody. The plate was then incubated on a shaker (˜500 rpm) for two hours at room temperature. […] The enzymatic reaction was stopped by adding 50 μl of Stop Solution, and the absorbance at 405 nm was measured immediately. The cAMP concentration was determined from non-linear standard curve using GraphPad Prism 5.0 software. […]

[1] = system: transient middle cerebral artery occlusion (tMCAO) rat model of stroke; test: Modified Neurological Rating Scale (mNRS), tMCAO rat model of stroke; assay type: in vivo; conditions: 50 μg/kg SC once per day, tMCAO rats
Method: (§1) For the purposes of this Example, Transient middle cerebral artery occlusion (tMCAO) procedure Day is defined as “Day 1” in this study. On the day of surgery anesthesia were induced with 4% isoflurane in a mixture of 70% N2O and 30% O2 and maintained with 1.5-2% isoflurane.
(§2) The tMCAO procedures were performed according to the method described R. Schmid-Elsaesser et al., A critical reevaluation of the intraluminal thread model of focal cerebral ischemia: evidence of inadvertent premature reperfusion and subarachnoid hemorrhage in rats by laser-doppler flowmetry, Stroke, 1998, 29(10): 2162-2170. Briefly, the right CCA (Common Carotid Artery) was exposed through a midline neck incision and carefully dissected free from surrounding nerves and fascia—from its bifurcation to the base of the skull. The occipital artery branches of the ECA (External Carotid Artery) were then isolated, and these branches were dissected and coagulated. The ECA was dissected further distally and coagulated along with the terminal lingual and maxillary artery branches, which was then divided. The ICA (Internal Carotid Artery) was isolated and carefully separated from the adjacent vagus nerve, and the pterygopalatine artery was ligated close to its origin with a 5-0 nylon suture (SMI, Belgium). […]

[2] = system: transient middle cerebral artery occlusion (tMCAO) rat model of stroke; test: Stepping test, tMCAO rat model of stroke; assay type: in vivo; conditions: 50 μg/kg SC once per day, tMCAO rats
Method: as §1
as §2, with “coagulated.” for “coagulated. The ECA was dissected further distally and coagulated along with the terminal lingual and maxillary artery branches, which was then divided. The ICA (Internal Carotid Artery) was isolated and carefully separated from the adjacent vagus nerve, and the pterygopalatine artery was ligated close to its origin with a 5-0 nylon suture (SMI, Belgium).”
Animals were tested for forelimb akinesia in a stepping test. The animal was held with its hind limbs fixed with one hand and the forelimb not monitored with the other, while the unrestrained fore-paw touches a table. The number of adjusting steps were counted while the animal was moved sideways along the table surface (85 cm in approximately five seconds), in the forehand & backhand direction for both forelimbs.

[3] = system: transient middle cerebral artery occlusion (tMCAO) rat model of stroke; test: Body swing test, tMCAO rat model of stroke; assay type: in vivo; conditions: 50 μg/kg SC once per day, tMCAO rats
Method: as §1
as §2, with “coagulated.” for “coagulated. The ECA was dissected further distally and coagulated along with the terminal lingual and maxillary artery branches, which was then divided. The ICA (Internal Carotid Artery) was isolated and carefully separated from the adjacent vagus nerve, and the pterygopalatine artery was ligated close to its origin with a 5-0 nylon suture (SMI, Belgium).”
The rat was held approximately one inch from the base of its tail. […] A swing was recorded whenever the rat moved its head out of the vertical axis to either side. Before attempting another swing, the rat had to return to the vertical position for the next swing to be counted. Twenty (20) total swings were counted. […] Body swing scores are expressed as a percentage of […] over total swings.

[4] = system: transient middle cerebral artery occlusion (tMCAO) rat model of stroke; test: Cerebral blood flow and vessel diameter (laser Doppler), tMCAO rat model of stroke; assay type: in vivo; conditions: day 50; 50 μg/kg SC
Method: as §1
(§3) The tMCAO procedures were performed according to the method described R. Schmid-Elsaesser et al., A critical reevaluation of the intraluminal thread model of focal cerebral ischemia: evidence of inadvertent premature reperfusion and subarachnoid hemorrhage in rats by laser-doppler flowmetry, Stroke, 1998, 29(10): 2162-2170. Briefly, the right CCA (Common Carotid Artery) was exposed through a midline neck incision and carefully dissected free from surrounding nerves and fascia—from its bifurcation to the base of the skull. The occipital artery branches of the ECA (External Carotid Artery) were then isolated, and these branches were dissected and coagulated. The ECA was dissected further distally and coagulated along with the terminal lingual and maxillary artery branches, which was then divided. The ICA (Internal Carotid Artery) was isolated and carefully separated from the adjacent vagus nerve, and the pterygopalatine artery was ligated close to its origin with a 5-0 nylon suture (SMI, Belgium). Next, a 4-0 silk suture was tied loosely around the mobilized ECA stump, and a 4 cm length of 4-0 monofilament nylon suture (the tip of the suture was blunted by using a flame, and the suture was coated with polylysine, prior to insertion) was inserted through the proximal ECA into the ICA and thence into the circle of Willis, effectively occluding the MCA. The surgical wound was closed and the animals were returned to their cages to recover from anesthesia. One hour and a half after occlusion rats were re-anesthetized, the monofilament was withdrawn to allow reperfusion, the surgical wound was closed and rats were returned to their cages.
(§4) Animals were subjected to a modified Modified Neurological Rating Scale (mNRS) at 24 hours post reperfusion. Only animals with an overall score of ≧10 were included in this study. Animals were allocated into the test groups, according to the mNRS results on day 2, in order to have similar distribution of rats performance between groups. Starting on day 2, 24 hours post-surgery, each animal was administered one of 50 μg/kg of either TXA301 (SEQ ID NO: 20) or TXA302 (SEQ ID NO: 18) or […]; via subcutaneous (SC) administration.
Evaluation of blood flow in the cerebral cortex and vessel constriction was carried out using a Flow-R Laser Doppler system, in which intracranial blood flow and vessels diameter (constriction/dilation) was monitored. The Doppler procedure was carried out on Day 50 after the stroke and was performed while the animals were under isoflurane anesthesia.

[5] = system: transient middle cerebral artery occlusion (tMCAO) rat model of stroke; test: Forelimb placement test, tMCAO rat model of stroke; assay type: in vivo; conditions: 50 μg/kg SC once per day; for forelimb placement: first day of statistically significant improvement vs vehicle: tMCAO rats; for forelimb placement score improvement vs vehicle control / forelimb placement score improvement vs vehicle control, percent: by day 50
Method: as §1, §3, §4
The limb placing tests were divided into both forelimb and hindlimb tests. For the forelimb-placing test, the examiner held the rat close to a tabletop and scored the rat's ability to place the forelimb on the tabletop in response to whisker, visual, tactile, or proprioceptive stimulation. Similarly, for the hindlimb placing test, the examiner assessed the rat's ability to place the hindlimb on the tabletop in response to tactile and proprioceptive stimulation. Separate sub-scores were obtained for each mode of sensory input and added to give total scores (for the forelimb placing test: 0=normal, 12=maximally impaired; for the hindlimb placing test: 0=normal; 6=maximally impaired). Scores were given in half-point increments as follows: whisker placing (0-2), visual placing-forward (0-2), -sideways (0-2); tactile placing-dorsal (0-2), -lateral (0-2); proprioceptive placing (0-2); for a total of 0-12.

[6] = system: human umbilical vein endothelial cells (HUVEC); test: BDNF production in HUVEC (BDNF Emax immunoassay of cell medium); assay type: cell-based; conditions: for lowest dose stimulating significant BDNF expression: serum-free medium, 24 hours stimulation
Method: (§5) Prior to stimulation, cells were washed twice with sterile PBS and then provided with the respective serum free cell medium. Cells were incubated in the serum-free medium for one hour and afterwards stimulated for 24 hours. For the dose response measurement the peptides were used in a range from 10^−14M to 10^−6M. For all other experiments, a 10^−7M concentration of the peptides was used, whereas isoproterenol and forskolin were used in a 10^−6M concentration. To maintain the concentration of the substances over a period of 24 hours they were added again into the medium after 12 hours. After stimulation, the concentration of BDNF was determined in the cell medium. The samples were either used directly or stored at −80° C.
(§6) For the determination of the concentration of BDNF the BDNF Emax® immunoassay system from Promega was used. At first, 96-well plates were coated with anti-BDNF overnight at 4° C. The next day, the plates were washed with TBST and incubated with blocking buffer for one hour at room temperature. Afterwards, the plate was washed again with TBST, and 100 μl of sample were applied per well. The plate was incubated on a shaker (˜400 rpm) for two hours at room temperature and later on washed five times with TBST. To each well 100 μl pAb anti-human BDNF were added, and the plate again incubated under continuous shaking for two hours at room temperature. Thereafter, the plate was washed five times with TBST, each well applied with 100 μl anti-IgY-HRP conjugate, and incubated at room temperature with shaking for one hour. Then, the plate was washed five times with TBST and incubated for 10 min at room temperature on a shaker with TMB One Solution. The reaction was stopped with 1 M hydrochloric acid and the absorbance was measured immediately at 450 nm. The BDNF concentration was determined from a standard curve.

[7] = system: human dermal microvascual endothelial cells (HDMEC); test: BDNF production in HDMEC (BDNF Emax immunoassay of cell medium); assay type: cell-based; conditions: for lowest dose stimulating BDNF expression: serum-free medium, 24 hours stimulation
Method: as §5, §6

Substance | dose of observed maximum cAMP (HUVEC cells) | lowest dose giving significant increase in cAMP (HUVEC cells) [pM] | mNRS: first day of significant increase in performance vs vehicle [1] [days] | stepping test: first day of statistically significant effect vs vehicle [2] [days] | body swing test: first day of statistically significant improvement vs vehicle [3] [days] | blood flow compared to vehicle controls and to rats receiving TXA301 [4] | blood flow ratio vs vehicle [4] | vessel diameter compared to vehicle controls and to rats receiving TXA301 [4] | vessel diameter vs vehicle [4] | forelimb placement: first day of statistically significant improvement vs vehicle [5] [days] | forelimb placement score improvement vs vehicle control [5] | forelimb placement score improvement vs vehicle control, percent [5] [%] | lowest dose stimulating significant BDNF expression [6] [nM] | lowest dose stimulating BDNF expression [7] [nM] | BDNF expression at doses 100,000 times higher than 1×10^−11 ([6]; compared with 1×10^−11 M) | BDNF expression at doses 100,000 times higher than 1×10^−11 ([7]; compared with 1×10^−11 M)
Ala^1-Arg^2-Val^3-Ser^4-Ile^5-His^6-Cys^7 (ARVSIHC) [TXA302] | approximately 1×10^−9 M | 10 | 15 | 15 | 15 | markedly improved blood flow | statistically significant improvement | increased vessel diameter | statistically significant improvement | 15 | more than 7 points | ~78 | – | – | – | –
Asp^1-Arg^2-Val^3-Tyr^4-Ile^5-His^6-Pro^7 (DRVYIHP) [Ang (1-7), naturally-occurring Ang-(1-7), reference compound] | – | – | – | – | – | – | – | – | – | – | – | – | 10 | 10 | – | –
TXA301: angiotensin (1-7) peptide coded TXA301 (SEQ ID NO: 20); sequence not printed in the text (DRVSIHC) | – | – | 15 | 15 | 22 | – | statistically significant improvement | – | statistically significant improvement | 22 | 4 points | ~44 | 0.01 | 0.01 | statistically similar levels of expression | statistically similar levels of expression
